This is an account of results in patent US20080187508A1, “Treatment of Golmerular Basement Membrane Disease Involving Matrix Metalloproteinase-12” (BOYS TOWN NATIONAL RESEARCH HOSPITAL, priority 2004, published 2008).

Entries after “also recorded” stand apart in the source; their conditions may differ.

For one assay, the system named is MMP-12 mRNA. Description: real time PCR of glomerular RNA of propagermanium-treated Alport mice: MMP-12. Format: in vivo, mouse. The note with it: propagermanium 10 mg/kg oral gavage once daily from 5 to 7 weeks of age, 50-fold in vehicle-treated. As to the method:
(§1) Isolation of mouse glomeruli was performed as described by Takemoto et al., (Am. J. Pathol. (2002)161, 799-805). The procedure involves cardiac perfusion with deactivated […] Dynabeads (Dynal Biotech, Oslo, Sweden), followed by collagenase digestion and glomerular isolation using a magnet.
(§2) Total RNA samples were treated with RNase-free DNase I (Gibco BRL, USA) at 37° C. for 1 hour (hr) in order to remove any contaminating genomic DNA before reverse transcription (RT). Total RNA was reverse-transcribed by using Superscript II (GIBCO BRL) with oligo dt primers. To ensure that the quantitation of MMP transcripts in serial samples was not affected by differences in the amount of RNA added, integrity of RNA, or sample to sample differences in levels of RT-PCR inhibition, an internal control reaction targeting the GAPDH gene was run in multiplex with each reaction, and used to normalize results for MMP transcripts. […] The data were analyzed using comparative threshold cycle (CT) method. The mRNA quantity for the control is expressed as 1× sample and all other quantities from Alport samples are expressed as fold difference relative to the controls. No measurable fluorescence signal was detected in repeated RT-PCR runs in which the reverse transcriptase was omitted from the reaction mixture. […]
For orientation: Real-time PCR tracks product formation cycle by cycle.

Assay [1] has as its system Alport mice. Description: transmission electron microscopy of glomerular basement membrane of treated Alport mice. Format: in vivo, mouse. The method, then:
The Alport mouse model has been described (Cosgrove et al. (1996) Genes Dev. 10, 2981-2992). The control mice used were normal for both collagen α3(IV) alleles, and are a product of double heterozygote crosses for the Alport mutation. The use of animals in this study was performed in accordance with an approved institutional IACUC protocol. Extreme care was taken to minimize pain and discomfort suffered by the mice. MMP inhibitors were administered between 4 and 7 weeks of age. All drugs were freshly prepared prior to administration. BAY 129566 was emulsified in suspension with 0.5% carboxymethyl cellulose and 4 mg given once a day by oral gavage. MMI-270 was solubilized in 0.9% saline and administered by I.P. injection (50 μg/g body weight) once a day. Transmission electron microscopy was performed as previously described (Cosgrove et al., 1996, Genes Dev. 10, 2981-2992). Ultrastructural localization studies of type IV collagen were performed essentially as previously described (Bhattacharya et al., 2002). Kidneys from 7-week-old control and Alport mice were fixed by heart perfusion with 2% paraformaldehyde in PBS, and post-fixed in this same solution overnight. Ultrathin (70 nm) sections were reacted for 4 hours at room temperature with goat anti-collagen IV antibodies (Southern Biotechnology, Birmingham, Ala.). After six 10 minute washes in PBS, specimen were reacted for 2 hours at room temperature with 10 nanometers (nm) gold-conjugated anti-rabbit antibodies (Vector Laboratories, Burlingame, Calif.). Grids were washed as before, air-dried, counterstained with uranyl acetate, and examined using transmission electron microscopy. Propagermanium (3-oxygemylpropinic acid polymer, Sanwa Kagaku Kenkyusho Co., Nagoya, Japan) was administered orally (10 milligrams per kilogram (mg/kg) in 1% gelatin) by gavage once daily starting at 5 weeks of age, and kidneys harvested at 7 weeks of age. Three animals per group, Alport mice and control litter mates, gavaged with drug or vehicle only, were analyzed. […] Proteolytic degradation of the GBM in Alport syndrome might underlie the progressive irregular GBM damage and podocyte foot process effacement. Type IV collagen from Alport kidneys is more susceptible to proteolytic degradation in vitro than type IV collagen from healthy kidneys (Kalluri et al. (1997) J. Clin. Invest. 99, 2470-2478, presumably owing to the reduced number of interchain disulfide crosslinks (Gunwar et al. (1998) J. Biol. Chem. 273, 8767-8775).

For another assay, the system named is MMP-3 mRNA. The assay can be described thus: real time PCR of glomerular RNA of propagermanium-treated Alport mice: MMP-3. Format: in vivo, mouse. The note with it: propagermanium 10 mg/kg oral gavage once daily from 5 to 7 weeks of age. As to the method: as §1, §2
The next assay concerns MMP-9 mRNA. The assay can be described thus: real time PCR of glomerular RNA of propagermanium-treated Alport mice: MMP-9. Format: in vivo, mouse. The settings on record: propagermanium 10 mg/kg oral gavage once daily from 5 to 7 weeks of age. The method, then:
as §1, §2

The target of another assay is MMP-9 (Homo sapiens, UniProt P14780). The settings on record: listed as BAY 129566; cited from earlier work.
MMP-9, sequence (P14780 94-707, species assumed): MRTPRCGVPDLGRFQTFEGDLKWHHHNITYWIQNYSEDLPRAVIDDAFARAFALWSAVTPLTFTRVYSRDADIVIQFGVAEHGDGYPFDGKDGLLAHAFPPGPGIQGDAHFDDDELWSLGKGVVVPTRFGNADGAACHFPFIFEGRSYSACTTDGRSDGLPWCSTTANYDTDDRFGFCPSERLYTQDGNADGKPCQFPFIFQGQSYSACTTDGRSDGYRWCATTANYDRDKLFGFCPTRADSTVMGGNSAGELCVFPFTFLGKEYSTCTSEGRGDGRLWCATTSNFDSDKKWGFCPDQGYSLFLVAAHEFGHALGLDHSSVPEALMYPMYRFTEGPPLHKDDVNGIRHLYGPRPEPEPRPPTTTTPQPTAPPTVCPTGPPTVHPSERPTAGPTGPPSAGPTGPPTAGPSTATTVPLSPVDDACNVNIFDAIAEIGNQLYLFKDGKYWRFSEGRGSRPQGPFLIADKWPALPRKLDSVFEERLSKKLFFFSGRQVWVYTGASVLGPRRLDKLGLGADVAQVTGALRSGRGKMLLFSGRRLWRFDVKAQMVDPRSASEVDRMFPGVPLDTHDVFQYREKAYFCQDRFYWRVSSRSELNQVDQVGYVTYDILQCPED
For the next assay, the target named is MMP-3 (Homo sapiens, UniProt P08254). The settings on record: listed as BAY 129566; cited from earlier work.
MMP-3, sequence (P08254 100-477, species assumed): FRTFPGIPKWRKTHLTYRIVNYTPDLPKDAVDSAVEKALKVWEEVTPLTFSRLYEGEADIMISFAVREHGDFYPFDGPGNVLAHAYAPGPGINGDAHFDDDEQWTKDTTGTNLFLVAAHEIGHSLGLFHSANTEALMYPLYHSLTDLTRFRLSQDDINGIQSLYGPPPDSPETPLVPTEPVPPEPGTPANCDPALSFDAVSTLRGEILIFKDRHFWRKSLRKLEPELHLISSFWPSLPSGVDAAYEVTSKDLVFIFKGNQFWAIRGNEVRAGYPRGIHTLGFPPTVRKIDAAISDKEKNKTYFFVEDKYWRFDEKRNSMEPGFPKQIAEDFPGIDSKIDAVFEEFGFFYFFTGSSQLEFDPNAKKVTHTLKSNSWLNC
Another assay addresses T1, MMP-2 (Homo sapiens, UniProt P08253).
T1 sequence (P08253 110-660): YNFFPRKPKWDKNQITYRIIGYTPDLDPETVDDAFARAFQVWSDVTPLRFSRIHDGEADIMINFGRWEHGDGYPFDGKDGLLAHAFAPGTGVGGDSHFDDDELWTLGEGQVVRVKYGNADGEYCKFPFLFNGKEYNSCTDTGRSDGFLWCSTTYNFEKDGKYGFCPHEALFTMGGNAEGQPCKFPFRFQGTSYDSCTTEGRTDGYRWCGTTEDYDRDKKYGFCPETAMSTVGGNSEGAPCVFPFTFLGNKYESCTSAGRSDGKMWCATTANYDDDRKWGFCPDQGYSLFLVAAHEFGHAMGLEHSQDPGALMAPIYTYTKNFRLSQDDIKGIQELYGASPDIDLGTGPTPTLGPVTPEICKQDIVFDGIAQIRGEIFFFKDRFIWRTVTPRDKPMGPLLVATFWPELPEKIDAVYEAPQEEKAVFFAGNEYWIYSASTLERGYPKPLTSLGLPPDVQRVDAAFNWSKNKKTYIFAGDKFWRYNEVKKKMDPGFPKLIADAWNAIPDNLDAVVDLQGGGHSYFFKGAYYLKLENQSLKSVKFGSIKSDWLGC
The settings on record: listed as BAY 129566; cited from earlier work.

The test system of assay [2] is Alport mice. The assay can be described thus: immunofluorescence of kidney cryosections (fibronectin, collagen IV α1/α2) of treated Alport mice. It is filed as in vivo, mouse. The settings on record: Alport mice treated from 4 to 7 weeks of age; MMI-270 50 μg/g I.P., BAY 129566 4 mg once daily oral gavage; fibronectin and collagen IV α1/α2 immunostaining. The method, then:
The Alport mouse model has been described (Cosgrove et al. (1996) Genes Dev. 10, 2981-2992). The control mice used were normal for both collagen α3(IV) alleles, and are a product of double heterozygote crosses for the Alport mutation. The use of animals in this study was performed in accordance with an approved institutional IACUC protocol. Extreme care was taken to minimize pain and discomfort suffered by the mice. MMP inhibitors were administered between 4 and 7 weeks of age. All drugs were freshly prepared prior to administration. BAY 129566 was emulsified in suspension with 0.5% carboxymethyl cellulose and 4 mg given once a day by oral gavage. MMI-270 was solubilized in 0.9% saline and administered by I.P. injection (50 μg/g body weight) once a day.
Cryosections ([…]) of kidneys from 7-week-old normal and Alport mice were air dried, fixed by immersion in ice cold acetone, and subjected to immunohistochemical staining analysis using antibodies specific for MMP-3 (rabbit polyclonal anti-human MMP-3, a gift from Dr. Z. Gunza-Smith, Miami, Fla., used at 1:200 dilution), MMP-12 (rabbit polyclonal antibody against mouse MMP-12, kindly provided by Yoshikatsu Kaneko, used at 1:100 dilution), type IV collagen α1/2 chains (rabbit polyclonal against mouse type IV collagen, Biodesign, Inc., Saco, Me., used at 1:200 dilution), fibronectin (rabbit polyclonal against human plasma fibronectin, Sigma Chemical Co., St. Louis, Mo., used at 1:200). Anti-CD31 antibodies were directly conjugated to Alexa 568 (Molecular Probes, Eugene Oreg.) and purchased from Immunotech (Marseille, France). […] Images were collected using a Cytovision Ultra Image analysis system interfaced with an Olympus BH-2 fluorescence microscope.
To assess the effect of these two compounds on Alport renal disease progression, Alport mice were administered either MMI 270 or BAY 129566 from 4 to 7 weeks of age. […] Cryosections were analyzed by immunofluorescence microscopy to assess for the degree of glomerular and tubulointerstitial damage using antibodies specific for collagen IV α1 and α2 chains, and fibronectin.

Another assay concerns the target MMP-12 (Homo sapiens, UniProt P39900). The settings on record: listed as BAY-12-9566; cited from earlier work.
In a further assay the target is MMP-14 (Homo sapiens, UniProt P50281). The settings on record: listed as BAY 129566; cited from earlier work.
The test system of assay [3] is Alport mice. The note with it: cited from earlier work.

MMP-12, sequence (P39900 106-470, species assumed): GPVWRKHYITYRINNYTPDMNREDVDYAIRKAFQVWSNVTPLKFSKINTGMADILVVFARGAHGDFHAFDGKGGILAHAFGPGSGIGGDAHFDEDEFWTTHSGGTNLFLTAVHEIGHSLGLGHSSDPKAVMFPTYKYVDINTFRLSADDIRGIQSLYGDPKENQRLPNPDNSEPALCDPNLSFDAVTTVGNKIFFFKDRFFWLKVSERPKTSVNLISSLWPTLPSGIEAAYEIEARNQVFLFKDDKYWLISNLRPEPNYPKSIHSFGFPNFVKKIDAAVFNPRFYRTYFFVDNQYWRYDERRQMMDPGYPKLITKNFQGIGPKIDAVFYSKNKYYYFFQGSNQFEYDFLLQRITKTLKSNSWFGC

“3-oxygermylpropionic acid [propagermanium]”: in the assay on MMP-12 mRNA, the “MMP-12 mRNA induction in glomeruli relative to normal controls” value is on record as 6 fold. Besides, in the assay with Alport mice [1] (Alport mice, propagermanium 10 mg/kg oral gavage once daily from 5 to 7 weeks of age, transmission electron microscopy), the “glomerular basement membrane architecture” value is recorded as “restores normal GBM architecture”. In addition, the “induction of MMP-3 mRNA in glomeruli” value in the assay with MMP-3 mRNA is listed as “unaffected”. The “induction of MMP-9 mRNA in glomeruli” value in the assay with MMP-9 mRNA is recorded as “unaffected”.

`O=C(C[C@H](CSc1ccccc1)C(=O)O)c1ccc(-c2ccc(Cl)cc2)cc1` [BAY 12-9566]: at MMP-9, the “MMP inhibitory effect, MMP-9” value was “inhibits”. Further, the “MMP inhibitory effect, MMP-3” value at MMP-3 is “inhibits”. For the same compound, the “MMP inhibitory effect, MMP-2” value on MMP-2 was “inhibits”. Moreover, the “glomerular and tubulointerstitial (renal) disease progression” value in the assay on Alport mice [2] is given as “same degree of renal pathology as untreated Alport mice; also recorded: no obvious effect; also recorded: did not significantly affect; also recorded: no improvement”. On MMP-12, the “MMP inhibitory effect, MMP-12” value is reported as “does not”. Further, in the assay with Alport mice [1] (Alport mice treated with MMP inhibitor from 4 to 7 weeks of age, electron microscopy), the “glomerular basement membrane architecture” value is on record as “no effect”. In addition, at MMP-14, the “MMP inhibitory effect, MMP-14” value is recorded as “inhibits”.

As for `CCOC(=O)[C@H](CCc1ccccc1)N[C@@H](C)C(=O)N1[C@H](C(=O)O)C[C@@H]2CCC[C@@H]21` [Ramipril], in the assay with Alport mice [3], the lifespan result is “doubles”.
